In patent US10870710B2, “Synthetic oligosaccharide subunits of the Psl exopolysaccharide of pseudomonas aeruginosa and uses thereof” (Medlmmune Limited, priority 2013, dated 2020):

system: anti-Psl mAb WapR-016 (class III); assay: ELISA, class III mAb WapR-016 binding to oligosaccharide-BSA conjugates; details: oligosaccharide-BSA conjugate coated on plate; mAb 5 μg/mL
Procedure: Microtiter plates were coated with tetrasaccharide (3)-BSA conjugate (3A), pentasaccharide (2)-BSA conjugate (3B), hexasaccharide (4)-BSA conjugate (3C), and decasaccharide (1)-BSA conjugate (3D) at the indicated carbohydrate concentrations. Anti-Psl mAbs class I (Cam-003, ●), class II (WapR-001, ▪), class III (WapR-016, ▴), and R347 (♦) (5 μg/mL) were tested for reactivity with each oligosaccharide component. The optical density (OD) values are reported as the means±SD. Class I (Cam-003), II (WapR-001), and III (WapR-016) anti-Psl mAbs were previously shown to bind three unique epitopes of Psl derived from P. aeruginosa.
The conjugations were performed as instructed by Pierce Endogen Inc. In short, the thiol derivative (2.5 eq. excess to available MI-groups on the protein), deprotected just prior to conjugation as described above, was dissolved in ddH2O (100 μL) and added to a solution of the maleimide activated protein (2 mg) in conjugation buffer sodium phosphate pH 7.2 containing EDTA and sodium azide (200 μL). The mixture was incubated at room temperature for 18 h and then purified by Millipore Centriplus centrifugal filter devices with a 10 kDa molecular cutoff. All centrifugations were performed at 4° C. for 25 min, 3000 rpm. The reaction mixture was centrifuged and the filter washed with sodium phosphate buffer pH 7.4 (3×200 μL). The conjugate was retrieved and taken up in sodium phosphate buffer pH 7.4, 0.15 M sodium chloride (1 mL). This gave glycoconjugates with a molar carbohydrate/BSA ratio of 7:1 for tetrasaccharide 3, 8:1 for pentasaccharide 2, 15:1 for hexasaccharide 4, and 5:1 for decasaccharide 1 as determined by quantitative monosaccharide analysis by HPAEC/PAD and the Lowry protein concentration assay.
ELISA plates (Nunc MaxiSorp) were coated overnight at 4° C. with 3-fold serial dilutions of oligosaccharide-BSA conjugates (relative to the concentration of the conjugated oligosaccharides) followed by washing with PBS supplemented with 0.1% Tween 20 (PBS-T) and blocking with PBS supplemented with 1% bovine serum albumin (PBS-B). The coated ELISA plates were incubated with anti-Psl antibodies (5 μg/mL in PBS-B) for 1 h at 4° C. Next the plates were washed with PBS-T and treated with HRP-conjugated anti-human secondary antibodies for 1 h followed by development and analysis as described (Digiandomenico, A., et al., J. Exp. Med. 2012, 209, 1273-1287).
After confirming the structural integrity of the synthetic Psl oligosaccharides, the ability of various anti-Psl mAbs to recognize the synthetic oligosaccharides was examined as follows. […]

SMILES | ELISA reactivity with WapR-016
CC1O[C@@H](OC2C(O)[C@H](OC3C(O[C@H]4OC(CO)[C@@H](O)C(O)C4O)[C@H](OC4C(O)[C@H](OC5C(O)[C@H](OC6C(O)[C@H](OCN)OC(CO)[C@H]6O)OC(C)[C@@H]5O)OC(CO)[C@H]4O)OC(CO)[C@H]3O)OC(CO)[C@H]2O)C(O)C(O[C@@H]2OC(CO)[C@@H](O)C(O[C@@H]3OC(CO)[C@@H](O)C(O)C3O[C@H]3OC(CO)[C@@H](O)C(O)C3O)C2O)[C@H]1O (stereo partly shown) [compound 1] | weakly
CC1O[C@@H](OC2C(O)[C@H](OCN)OC(CO)[C@H]2O)C(O)C(O[C@@H]2OC(CO)[C@@H](O)C(O[C@@H]3OC(CO)[C@@H](O)C(O)C3O[C@H]3OC(CO)[C@@H](O)C(O)C3O)C2O)[C@H]1O (stereo partly shown) [compound 2] | did not bind
CC1O[C@@H](OC2C(O)[C@H](OCN)OC(CO)[C@H]2O)C(O)C(O[C@@H]2OC(CO)[C@@H](O)C(O[C@@H]3OC(CO)[C@@H](O)C(O)C3O)C2O)[C@H]1O (stereo partly shown) [compound 3] | did not bind
CC1O[C@@H](OC2C(O)[C@H](OCN)OC(CO)[C@H]2O)C(O)C(O[C@@H]2OC(CO)[C@@H](O)C(O[C@@H]3OC(CO)[C@@H](O)C(O[C@@H]4OC(CO)[C@@H](O)C(O)C4O)C3O[C@H]3OC(CO)[C@@H](O)C(O)C3O)C2O)[C@H]1O (stereo partly shown) [compound 4] | react potently
